From PMC8881512 (Nature Communications, 2022)
“And” between values parts separate entries of the source, which are not always exact repeats. Equal entries are not always repeated.

Tests used:
[1] = test system: VGLL3, ESR1, YAP/TAZ target and ERα target gene mRNA in MCF-7 cells; assay: qPCR gene expression in MCF-7 cells;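 as to all read-outs here: SYBR Green real-time PCR, mRNA abundance computed by the ΔCt approach with GAPDH transcript as the internal normalisation control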; details: MCF-7, 2 µM for 2 days; for ANKRD1 mRNA (qPCR, relative to DMSO) / LATS2 mRNA (qPCR, relative to DMSO) / VGLL3 mRNA (qPCR, relative to DMSO): sheet Fig.s7b (Supplementary Fig. 7c); for ESR1 mRNA (qPCR, relative to DMSO) / GREB1 mRNA (qPCR, relative to DMSO) / TFF1 mRNA (qPCR, relative to DMSO): sheet Fig.s7d (Supplementary Fig. 7e)
T47D cells = assay: Colony-formation assay, T47D (wild-type and ESR1 knock-in); format: cell-based; details: 1 μM 4OHT, 0.2 μM Fulvestrant, 2 μM VT02956, 2 μM VT02484, 14 days, Fig.6h
Method: For colony formation, cells were plated into 12-well plate with a constant density at the start date of treatment in triplicate with the indicated compounds and further cultured for 10 days (MCF-7) or 14 days (T47D). The drugs were refreshed every 2–4 days. The colonies were then fixed with 4% paraformaldehyde for 15 min and stained with 0.1% crystal violet in 20% methanol solution for quantification.

MCF-7 cells = assay: Colony-formation assay, MCF-7 (wild-type and ESR1 knock-in); format: cell-based, human; details: for Rel. colony (colony-formation assay): MCF-7, VT02956 (2 μM), VT02484 (2 μM) or Palbociclib (0.1 μM) alone or in combinations, Fig.6d; for Relative colony formation: 1 μM 4OHT, 0.2 μM Fulvestrant, 2 μM VT02956, 2 μM VT02484, Fig.6g
Method: […] The drugs were refreshed every 2–4 days. The colonies were then fixed with 4% paraformaldehyde for 15 min and stained with 0.1% crystal violet in 20% methanol solution for quantification.

LATS1 = biological target: T1, LATS1 (Homo sapiens, UniProt O95835); assay: In vitro LATS1 kinase inhibition assay (HTRF); format: biochemical; details: for IC50: 3000 μM ATP, n = 2; for LATS1 kinase activity: Fig.5b
T1 construct: purchased Signalchem
T1 sequence (O95835 1-1130): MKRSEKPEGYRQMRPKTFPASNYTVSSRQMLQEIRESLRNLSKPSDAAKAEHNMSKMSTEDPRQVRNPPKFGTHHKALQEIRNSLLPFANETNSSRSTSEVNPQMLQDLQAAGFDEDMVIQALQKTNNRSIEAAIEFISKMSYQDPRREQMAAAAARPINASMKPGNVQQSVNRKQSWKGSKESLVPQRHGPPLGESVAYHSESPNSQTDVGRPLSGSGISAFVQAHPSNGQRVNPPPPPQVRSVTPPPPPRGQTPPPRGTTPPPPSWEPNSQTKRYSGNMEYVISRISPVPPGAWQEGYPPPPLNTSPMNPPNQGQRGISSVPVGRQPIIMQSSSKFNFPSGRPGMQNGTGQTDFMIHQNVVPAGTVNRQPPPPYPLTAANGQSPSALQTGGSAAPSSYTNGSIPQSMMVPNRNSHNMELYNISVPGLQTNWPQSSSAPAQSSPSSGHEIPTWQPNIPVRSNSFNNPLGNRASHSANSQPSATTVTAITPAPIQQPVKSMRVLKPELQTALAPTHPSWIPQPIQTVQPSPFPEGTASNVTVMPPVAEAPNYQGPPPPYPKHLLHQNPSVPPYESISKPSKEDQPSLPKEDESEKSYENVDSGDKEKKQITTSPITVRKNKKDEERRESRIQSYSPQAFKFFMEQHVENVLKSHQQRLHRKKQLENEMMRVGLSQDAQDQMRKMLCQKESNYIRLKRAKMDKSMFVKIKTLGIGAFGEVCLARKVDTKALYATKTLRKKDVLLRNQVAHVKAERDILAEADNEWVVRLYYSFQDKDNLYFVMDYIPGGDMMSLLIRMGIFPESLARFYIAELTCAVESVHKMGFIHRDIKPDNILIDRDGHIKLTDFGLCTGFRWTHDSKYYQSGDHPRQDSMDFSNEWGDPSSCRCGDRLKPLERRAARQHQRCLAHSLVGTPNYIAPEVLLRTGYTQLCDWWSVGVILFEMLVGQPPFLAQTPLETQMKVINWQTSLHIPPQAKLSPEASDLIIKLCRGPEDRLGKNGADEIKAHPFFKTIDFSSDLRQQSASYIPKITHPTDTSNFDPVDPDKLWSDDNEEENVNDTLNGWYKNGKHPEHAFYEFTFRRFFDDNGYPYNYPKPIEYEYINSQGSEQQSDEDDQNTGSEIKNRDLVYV
Method: The kinase activity of LATS1 and LATS2 were performed based on an adapted and optimised HTRF Kinase Binding assay (Cisbio). Briefly, the concentration-response curves with compound concentration range of 10,000 to 0.17 nM with 3-fold serial dilution and 1X Kinase enzymatic buffer (Cisbio), 1.2 nM LATS1 or LATS2 kinases (Signalchem), 0.5 μM biotinylation labelled YAP peptide (Vivace) were dispensed into 384-well microplates by automated digital dispenser Echo/POD with the final DMSO concentration in all wells at 0.5%. To start the enzymatic reaction, 3000 μM ATP (for LATS1) or 6000 μM ATP (for LATS2) were added using multidrop in a 10-μl volume and incubated for 90 min at 30 °C. Subsequently, 10 μl of HTRF KinEASE detection buffer (Cisbio) containing 31.25 nM acceptor conjugate (streptavidin-XL665) and 1:100 donor conjugate (TK antibody labelled with Eu^3+-Cryptate) mixture were added and incubated at RT for 60 min, and the fluorescence emission at two different wavelengths was measured (615 nm and 665 nm) on Envision. […] The inhibition was calculated by the formula, inhibition % = (HIGH − ratio) × 100/ (High − LOW). HIGH control stands for 0.5% DMSO with kinase and LOW control stands for 0.5% DMSO without kinase. The data was analysed by Xlfit software. The IC50 values were determined by fitting to a standard four-parameter logistic using GraphPad Prism.

[2] = test system: YAP target, ESR1 and ERα target gene mRNA in T47D cells; assay: qPCR gene expression in T47D cells; format: cell-based, human; details: 2 µM for 2 days; for ANKRD1 mRNA (qPCR, relative to DMSO) / LATS2 mRNA (qPCR, relative to DMSO) / VGLL3 mRNA (qPCR, relative to DMSO): sheet Fig.s7c (Supplementary Fig. 7d); for ESR1 mRNA (qPCR, relative to DMSO) / GREB1 mRNA (qPCR, relative to DMSO) / TFF1 mRNA (qPCR, relative to DMSO): sheet Fig.s7e (Supplementary Fig. 7f)
Text: PCR primer pairs included

| IC50 (LATS1; in vitro) | SMILES | ANKRD1 mRNA (qPCR, relative to DMSO) [1] | LATS2 mRNA (qPCR, relative to DMSO) [1] | VGLL3 mRNA (qPCR, relative to DMSO) [1] | ESR1 mRNA (qPCR, relative to DMSO) [1] | GREB1 mRNA (qPCR, relative to DMSO) [1] | TFF1 mRNA (qPCR, relative to DMSO) [1] | Relative colony formation (T47D cells; T47D ERa Y537S knock-in) | Relative colony formation (T47D cells; T47D WT) | Rel. colony (colony-formation assay) (MCF-7 cells) | Relative colony formation (MCF-7 cells; MCF-7 ERa D538G knock-in) | Relative colony formation (MCF-7 cells; MCF-7 ERa Y537S knock-in) | Relative colony formation (MCF-7 cells; MCF-7 WT) | ANKRD1 mRNA (qPCR, relative to DMSO) [2] | LATS2 mRNA (qPCR, relative to DMSO) [2] | VGLL3 mRNA (qPCR, relative to DMSO) [2] | ESR1 mRNA (qPCR, relative to DMSO) [2] | GREB1 mRNA (qPCR, relative to DMSO) [2] | TFF1 mRNA (qPCR, relative to DMSO) [2] | other results |
| --- | --- | --- | --- | --- | --- | --- | --- | --- | --- | --- | --- | --- | --- | --- | --- | --- | --- | --- | --- | --- |
| > 10000 nM | CCN(CC)c1nc(-c2ccncc2)nc2c(-c3ccc(Cl)cc3)cccc12 [VT02484] | 0.9375 and 1.0569 and 0.9783 | 1.073 and 0.8452 and 1.234 | 1.127 and 1.023 and 0.9343 | 0.9424 and 1.008 and 0.8622 | 1.01 and 0.9864 and 0.9917 | 1.063 and 1.169 and 0.8376 | 0.96 and 0.91 and 1.03 | 1.12 and 0.89 and 0.98 | 0.94 and 1.05 and 1.08 | 1.12 and 1.04 and 1.03 | 0.96 and 0.91 and 1.03 | 0.96 and 0.89 and 1.02 | 0.9511 and 0.8877 and 0.7788 | 1.062 and 1.257 and 1.047 | 1.036 and 0.9545 and 1.103 | 1.074 and 0.8288 and 1.02 | 1.002 and 1.049 and 0.9359 | 1.09 and 1.077 and 1.0923 | inhibition towards LATS (LATS1; in vitro, LATS1 and LATS2 (Fig. 5b, c)): showed no inhibition towards LATS |
| 0.76 nM | NCC1CCN(c2nc(-c3ccncc3)nc3c(C#CCO)cccc23)CC1 [VT02956] | 39.7272 and 41.5085 and 42.3168 | 3.381 and 2.554 and 3.922 | 57.2973 and 54.8732 and 38.032 | 0.1783 and 0.1761 and 0.1829 | 0.3188 and 0.332 and 0.2804 | 0.2697 and 0.3023 and 0.214 | 0.41 and 0.42 and 0.48 | 0.39 and 0.48 and 0.51 | 0.41 and 0.36 and 0.33 | 0.39 and 0.37 and 0.34 | 0.41 and 0.42 and 0.45 | 0.32 and 0.27 and 0.35 | 151.05 and 152.548 and 126.932 | 2.078 and 1.8081 and 2.057 | 25.7059 and 26.0713 and 24.6224 | 0.1433 and 0.1061 and 0.1464 | 0.2102 and 0.1984 and 0.2087 | 0.06716 and 0.07329 and 0.06992 | LATS1 kinase activity (LATS1; Conc. 0.00016935 (µM)): 83.5285 and 93.8174; LATS1 kinase activity (LATS1; Conc. 0.00050805 (µM)): 56.9778 and 63.1654; LATS1 kinase activity (LATS1; Conc. 0.00152416 (µM)): 31.2859 and 31.2259; LATS1 kinase activity (LATS1; Conc. 0.00457247 (µM)): 3.14 and 1.742 |
